Data: ChEMBL document CHEMBL4725364, “Discovery of a Copper-Based Mcl-1 Inhibitor as an Effective Antitumor Agent” (J Med Chem, 2020)

Columns and labels:
NCI-H929 = assay: Cytotoxicity against human NCI-H929 cells after 24 hrs by MTT assay; assay type: functional, cell-based; details: NCI-H929, 24 h
KMS-12-PE = assay: Cytotoxicity against human KMS-12-PE cells after 24 hrs by MTT assay; assay type: functional, cell-based
LP-1 = assay: Cytotoxicity against human LP-1 cells after 24 hrs by MTT assay; assay type: functional, cell-based; details: LP-1, 24 h
MM1.S = assay: Cytotoxicity against human MM1.S cells after 24 hrs by MTT assay; assay type: functional, cell-based
[1] = biological target: T1, Induced myeloid leukemia cell differentiation protein Mcl-1 (Homo sapiens, UniProt Q07820); assay: Inhibition of N-terminal biotin-labeled BIM BH3 peptide (141 to 166 residues) binding to His-tagged Mcl-1 (171 to 327 residues) (unknown origin) expressed in Escherichia coli BL21 (DE3) cells incubated for >=30 mins by […]
[2] = biological target: T1, Induced myeloid leukemia cell differentiation protein Mcl-1; assay: Displacement of Flu-BID/FAM-BID from His-tagged Mcl-1 (171 to 327 residues) (unknown origin) expressed in Escherichia coli BL21 (DE3) cells incubated for 3 hrs by fluorescence polarization assay
K562 = assay: Cytotoxicity against human K562 cells after 24 hrs by MTT assay; assay type: functional, cell-based; details: K562, 24 h
L-363 = assay: Cytotoxicity against human L-363 cells after 24 hrs by MTT assay; assay type: functional, cell-based; details: L-363, 24 h
[3] = biological target: T1, Induced myeloid leukemia cell differentiation protein Mcl-1; assay: Inhibition of biotinylated Bim peptide (81 to 106 residues) binding to His-tagged Mcl-1 (171 to 327 residues) (unknown origin) expressed in Escherichia coli BL21 (DE3) cells preincubated for 1 hr followed by biotinylated Bim peptide addition measured after 2 hrs by ELISA
[4] = Cytotoxicity against human MOLP8 cells after 24 hrs by MTT assay; assay type: functional, cell-based; details: MOLP-8, 24 h

T1 sequence (Q07820 whole entry, the tested form may be a part): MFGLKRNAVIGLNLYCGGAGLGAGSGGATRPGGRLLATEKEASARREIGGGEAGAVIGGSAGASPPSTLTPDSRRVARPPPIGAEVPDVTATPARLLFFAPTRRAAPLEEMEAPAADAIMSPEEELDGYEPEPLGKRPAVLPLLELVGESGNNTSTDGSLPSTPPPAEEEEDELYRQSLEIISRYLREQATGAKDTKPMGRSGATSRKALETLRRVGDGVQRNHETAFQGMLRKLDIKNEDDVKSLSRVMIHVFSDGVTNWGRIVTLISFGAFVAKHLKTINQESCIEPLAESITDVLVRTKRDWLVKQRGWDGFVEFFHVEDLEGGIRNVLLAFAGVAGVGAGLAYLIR

## c1ccc(Cn2c3ccccc3c3ccnc(-c4ccccn4)c32)cc1
NCI-H929
  IC50: 37.4 µM
KMS-12-PE
  IC50: > 40 µM
LP-1
  IC50: > 40 µM
MM1.S
  IC50: > 40 µM
[1]
  IC50: > 10 µM
[2]
  Ki: 6.13 µM
K562
  IC50: 32.8 µM
L-363
  IC50: > 40 µM
[3]
  IC50: > 10 µM
[4]
  IC50: > 40 µM

## c1ccc(-c2nccc3c4ccccc4n(CC4CC4)c23)nc1
NCI-H929
  IC50: > 40 µM
KMS-12-PE
  IC50: > 40 µM
LP-1
  IC50: > 40 µM
MM1.S
  IC50: > 40 µM
[1]
  IC50: > 10 µM
[2]
  Ki: > 10 µM
K562
  IC50: > 40 µM
L-363
  IC50: > 40 µM
[3]
  IC50: > 10 µM
[4]
  IC50: > 40 µM

## c1ccc(-c2nccc3c4ccccc4n(Cc4ccc5ccccc5c4)c23)nc1
NCI-H929
  IC50: > 40 µM
KMS-12-PE
  IC50: > 40 µM
LP-1
  IC50: > 40 µM
MM1.S
  IC50: > 40 µM
[1]
  IC50: 8.52 µM
[2]
  Ki: 6.61 µM
K562
  IC50: > 40 µM
L-363
  IC50: > 40 µM
[3]
  IC50: > 10 µM
[4]
  IC50: > 40 µM

## c1ccc(OCCn2c3ccccc3c3ccnc(-c4ccccn4)c32)cc1
NCI-H929
  IC50: > 40 µM
KMS-12-PE
  IC50: > 40 µM
LP-1
  IC50: > 40 µM
MM1.S
  IC50: > 40 µM
[1]
  IC50: > 10 µM
[2]
  Ki: > 10 µM
K562
  IC50: > 40 µM
L-363
  IC50: > 40 µM
[3]
  IC50: > 10 µM
[4]
  IC50: > 40 µM

## c1ccc(CCn2c3ccccc3c3ccnc(-c4ccccn4)c32)cc1
NCI-H929
  IC50: 14.3 µM
KMS-12-PE
  IC50: > 40 µM
LP-1
  IC50: 18.8 µM
MM1.S
  IC50: > 40 µM
[1]
  IC50: 8.81 µM
[2]
  Ki: 3.13 µM
K562
  IC50: 17.9 µM
L-363
  IC50: 24.9 µM
[3]
  IC50: > 10 µM
[4]
  IC50: 21.4 µM

## CCOCCn1c2ccccc2c2ccnc(-c3ccccn3)c21
NCI-H929
  IC50: > 40 µM
KMS-12-PE
  IC50: > 40 µM
LP-1
  IC50: > 40 µM
MM1.S
  IC50: > 40 µM
[1]
  IC50: > 10 µM
[2]
  Ki: > 10 µM
K562
  IC50: > 40 µM
L-363
  IC50: > 40 µM
[3]
  IC50: > 10 µM
[4]
  IC50: > 40 µM

## CCn1c2ccccc2c2ccnc(-c3ccccn3)c21
NCI-H929
  IC50: > 40 µM
KMS-12-PE
  IC50: > 40 µM
LP-1
  IC50: > 40 µM
MM1.S
  IC50: > 40 µM
[1]
  IC50: > 10 µM
[2]
  Ki: > 10 µM
K562
  IC50: > 40 µM
L-363
  IC50: > 40 µM
[3]
  IC50: > 10 µM
[4]
  IC50: > 40 µM

## Cc1ccc(Cn2c3ccccc3c3ccnc(-c4ccccn4)c32)cc1
NCI-H929
  IC50: 17.9 µM
KMS-12-PE
  IC50: > 40 µM
LP-1
  IC50: 25.8 µM
MM1.S
  IC50: > 40 µM
[1]
  IC50: 9.08 µM
[2]
  Ki: 4.93 µM
K562
  IC50: 22.6 µM
L-363
  IC50: 33.5 µM
[3]
  IC50: > 10 µM
[4]
  IC50: 27.5 µM

## Cc1nn(C)c(COc2ccc(N3CCN(S(=O)(=O)N(C)C)CC3)cc2)c1-c1cccc2c(CCCOc3cccc4ccccc34)c(C(=O)O)n(CCN3CCOCC3)c12
NCI-H929
  IC50: 8.6 µM
KMS-12-PE
  IC50: > 40 µM
LP-1
  IC50: 10.6 µM
MM1.S
  IC50: > 40 µM
[1]
  IC50: 0.0088 µM
[2]
  Ki: 0.0047 µM
K562
  IC50: 13.9 µM
L-363
  IC50: 11.8 µM
[3]
  IC50: 0.0125 µM
[4]
  IC50: 9.7 µM

## c1ccc(-c2nccc3c2[nH]c2ccccc23)nc1
NCI-H929
  IC50: > 40 µM
KMS-12-PE
  IC50: > 40 µM
LP-1
  IC50: > 40 µM
MM1.S
  IC50: > 40 µM
[1]
  IC50: > 10 µM
[2]
  Ki: > 10 µM
K562
  IC50: > 40 µM
L-363
  IC50: > 40 µM
[3]
  IC50: > 10 µM
[4]
  IC50: > 40 µM

## Fc1ccc(Cn2c3ccccc3c3ccnc(-c4ccccn4)c32)cc1
NCI-H929
  IC50: 25.4 µM
KMS-12-PE
  IC50: > 40 µM
LP-1
  IC50: 33.6 µM
MM1.S
  IC50: > 40 µM
[1]
  IC50: > 10 µM
[2]
  Ki: 5.52 µM
K562
  IC50: 28.9 µM
L-363
  IC50: > 40 µM
[3]
  IC50: > 10 µM
[4]
  IC50: 34.7 µM

## c1ccc(COCCn2c3ccccc3c3ccnc(-c4ccccn4)c32)cc1
NCI-H929
  IC50: > 40 µM
KMS-12-PE
  IC50: > 40 µM
LP-1
  IC50: > 40 µM
MM1.S
  IC50: > 40 µM
[1]
  IC50: > 10 µM
[2]
  Ki: 7.88 µM
K562
  IC50: > 40 µM
L-363
  IC50: > 40 µM
[3]
  IC50: > 10 µM
[4]
  IC50: > 40 µM
